Reference: patent US9018374B2, “Crystal of amide compound” (Takeda Pharmaceutical Company Limited, priority 2010, dated 2015)
Entries after “also recorded” stand apart in the source; their conditions may differ.

What was measured:
Slurry interconversion = format: physicochemical; conditions: for crystal form 1 day later: 20 mg in 0.2 mL isopropyl alcohol, slurry at ambient temperature, powder X-ray diffraction, hydrochloride
Method: Type A crystal, type B crystal, and a mixture (1:1) of type A crystal and type B crystal (each 20 mg) were measured in vials, and isopropyl alcohol (0.2 mL) was added to give suspension containing excess solids remaining therein. The vial was sealed, and shaken on a slurry wheel at ambient temperature for 1 day at steady rotation. Thereafter, the solids were collected by filtration.

[1] = Moisture adsorption analysis; format: physicochemical; conditions: 25° C., hydrochloride
Method: Moisture adsorption of type A crystal and type B crystal was automatically analyzed by VTI Symmetrical Gravimetric Analyzer in step-isothermal mode (SGA-100 for type A crystal, SGA-CX for type B crystal). Samples were exposed various relative humidities (RH) at 25° C. The weight of the samples at each relative humidity was recorded after equilibrium (weight change of less than 0.02% within 10 min).

Dissolution test = conditions: room temperature (25° C.)
Method: To type A crystal and type B crystal (each 50 mg) were added 2-butanone, ethyl acetate, toluene, n-heptane and tert-butylmethylether (each 5 mL), and the dissolution property was measured using a powder suspension (25° C., 2 hr). The suspension was centrifuged, the supernatant was filtered with a filter (pore size 0.22 μm), and the solvent was evaporated from the filtrate under a nitrogen atmosphere. The residue obtained by evaporation was dissolved in a mixed solution of 50 mM aqueous ammonium acetate solution/acetonitrile (1:1), and measured by HPLC.

SMILES	crystal form 1 day later (Slurry interconversion)	thermodynamic stability as compared to type A crystal (from slurry experiment) (Slurry interconversion; ambient temperature)	level (%) of weight change ([1]; relative humidity 30% RH) [%]	level (%) of weight change ([1]; relative humidity 50% RH) [%]	level (%) of weight change ([1]; relative humidity 70% RH) [%]	thermodynamic stability as compared to type A crystal (from dissolution test) (Dissolution test)
COCCCCn1c(C(=O)N(CC(C)C)[C@@H]2CNC[C@H](C(=O)N3CCOCC3)C2)nc2ccccc21.Cl [type B crystal, 1-(4-methoxybutyl)-N-(2-methylpropyl)-N-[(3S,5R)-5-(morpholin-4-ylcarbonyl)piperidin-3-yl]-1H-benzimidazole-2-carboxamide hydrochloride]	no change; also recorded: type B	thermodynamically stable	0.0	0.5	0.9	thermodynamically stable
COCCCCn1c(C(=O)N(CC(C)C)[C@@H]2CNC[C@H](C(=O)N3CCOCC3)C2)nc2ccccc21.Cl [type A crystal, 1-(4-methoxybutyl)-N-(2-methylpropyl)-N-[(3S,5R)-5-(morpholin-4-ylcarbonyl)piperidin-3-yl]-1H-benzimidazole-2-carboxamide hydrochloride, reference compound]	convert to type B crystal	–	−0.1	0.0	7.6	–
